Test results from US20160296437A1, “ORAL CARE ZINC COMPOSITIONS” (COLGATE-PALMOLIVE COMPANY, priority 2013, published 2016).

Experiments:
[1] = system: Actinobacillus actinomycetemcomitans (Aa) ATCC cat#29522; assay: Bacterial invasion of human periodontal ligament fibroblasts by Actinobacillus actinomycetemcomitans (internalized colony count); type: cell-based; settings: for reduces internalized Actinobacillus actinomycetemcomitans: versus Aa alone, HPdLF cells
Protocol: (§1) Human periodontal ligament fibroblasts (HPdLF, Lonza cat#CC-7049) are seeded onto a plate and incubated at 37° C. in 5% CO2 overnight using SCGM bullet kit (Lonza, #CC-3205) containing Stromal cell basal medium, hFGF-B, insulin, FBS and GA-1000.
(§2) Pathogenic bacteria Actinobacillus actinomycetemcomitans (Aa) ATCC cat#29522 or Porphyromonas gingivalis (Pg) ATCC cat#33277) are incubated overnight at 37° C. (using tryptic soy broth for Actinobacillus actinomycetemcomitans and half-strength brain heart infusion (supplemented with yeast extract, hemin and vitK1) for Porphyromonas gingivalis). The optical density (OD) at 610 nm is read. The bacteria are centrifuged at 8000 rpm for 10 mins and the pellet resuspended in cell culture media and diluted to OD610 of 0.1 to 0.2.
(§3) The test sample (dissolved in water) is added to the cells and incubated at 37 C in 5% CO2 incubator for 30 minutes before the bacteria are added. The cells are infected with bacteria by adding the resuspended bacteria to the cells and further incubating at 37° C. in 5% CO2 incubator for 90 to 120 minutes.
The cells are washed five times with PBS to remove non-adherent bacteria. Fresh cell culture medium containing 1× penicillin (100 IU) and streptomycin (100 μg/ml) is added and the cells incubated at 37° C. in 5% CO2 incubator for 2 hours to kill extracellular bacteria. The medium is then removed and the cells washed three times with PBS. 1 ml 1% saponin solution in PBS is added to the infected cells for 5 minutes at. 37° C. to lyse the cells and release internalized bacteria. Dilutions (serial dilutions in PBS with dilution factor 10) are plated onto a suitable medium using a 100 μl sample and spread with a sterilized stick before incubating in an anaerobic chamber at 37° C. for 2-3 days and counting the resultant bacterial colonies.

[2] = system: Porphyromonas gingivalis (Pg) ATCC cat#33277; assay: Bacterial invasion of human periodontal ligament fibroblasts by Porphyromonas gingivalis (internalized colony count); type: cell-based
Protocol: as §1, §2, §3
The cells are washed five times with PBS to remove non-adherent bacteria. Fresh cell culture medium containing 1× penicillin (100 IU) and streptomycin (100 μg/ml) is added and the cells incubated at 37° C. in 5% CO2 incubator for 2 hours to kill extracellular bacteria. […]

Structure (SMILES) | Bacterial Count ([1]; Table 2, internalized Aa in HPdLF cells, sample at 8 ppm, Aa alone 178) | reduces internalized Actinobacillus actinomycetemcomitans ([1]; Table 2 experiment, at 8 ppm) | Bacterial Count ([2]; Table 1, internalized Pg in HPdLF cells pretreated 30 minutes with sample, ZnO concentration not given, Pg alone 11460) | reduces internalized Porphyromonas gingivalis ([2]; Table 1 experiment, versus Pg alone, HPdLF cells) | Bacterial Count ([1]; Table 1, internalized Aa in HPdLF cells pretreated 30 minutes with sample, ZnO concentration not given, Aa alone 11800) | reduces internalized Actinobacillus actinomycetemcomitans ([1]; Table 1 experiment) | Bacterial Count ([1]; Table 2, internalized Aa in HPdLF cells, sample at 4 ppm, Aa alone 178) | reduces internalized Actinobacillus actinomycetemcomitans ([1]; Table 2 experiment, at 4 ppm)
O=C([O-])CC(O)(CC(=O)[O-])C(=O)[O-].O=C([O-])CC(O)(CC(=O)[O-])C(=O)[O-].[Zn+2].[Zn+2].[Zn+2] [ZnCitrate, zinc citrate] | 64 | approximately 66% |  |  |  |  |  | 
[O]=[Zn] [ZnO, zinc oxide] |  |  | 10760 | approximately 6% | 10040 | approximately 15% | 137 | approximately 23%
